Earlier results in US11786526B2, “Pharmaceutical composition comprising rosuvastatin and ezetimibe and a preparation method thereof” (SANOFI, priority 2016, dated 2023).

Key:
[1] = not given; remark: listed apart in the source

SMILES	Solubility in water	Stability in an acidic environment [1]
O=C1[C@H](CC[C@H](O)c2ccc(F)cc2)[C@@H](c2ccc(O)cc2)N1c1ccc(F)cc1 [Ezetimibe, (3R,4S)-1-(4-fluorophenyl)-3-[(3S)-3-(4-fluorophenyl)-3-hydroxypropyl]-4-(4-hydroxyphenyl)azetidin-2-one]	almost insoluble in water	
CC(C)c1nc(N(C)S(C)(=O)=O)nc(-c2ccc(F)cc2)c1/C=C/[C@@H](O)C[C@@H](O)CC(=O)O [rosuvastatin, (3R,5S,6E)-7-[4-(4-fluorophenyl)-2-(N-methylmethanesulfonamido)-6-(propan-2-yl)pyrimidin-5-yl]-3,5-dihydroxyhept-6-enoic acid]		unstable in an acidic environment
